In data set [1] the test system is PC3 (PSMA-) xenografts. Put plainly: PET image quantification of organ distribution (SUVmeanBW), PC3 xenograft mice. The format is in vivo, Balb/c nude mice. How it is done:
(§1) The in vivo imaging potential of [^18F]PSMA‐MIC01 was evaluated using a murine animal model (see Supporting Information for experimental details).65 This was performed in a procedure that involved the study of the tumor uptake, binding specificity and comparison to [^68Ga]PSMA‐11. Tumor uptake of [^18F]PSMA‐MIC01 was assessed by performing a 90 min dynamic PET scan.
(§2) The animal experiments were all performed according to the ethical guidelines and approved by the local animal welfare committee of the University of Groningen (IvD number 15166-06-001. All animals were caged separately in individually ventilated cages.
(§3) 7-12 week old immune deficient Balb/c nude mice were inoculated with 200 µL of a 1:1 suspension of medium containing approximately 4 x10^6 LNCaP cells (PSMA positive cells) or 5 x 10^6 PC3 cells (PSMA-negative cells) in RPMI-1640, and Matrigel Basement Membrane Matrix High concentration. The cells were subcutaneously inoculated on the right shoulder.
(§4) After 3 to 5 weeks for LNCaP-xenografts, 2-3 weeks for PC3-xenografts or when a tumor size of 1cm3 was reached, the animals were transported to the PET imaging facility. For the […]
(§5) prepared and 100 µL were injected via penile vein injection 30 min prior to the tracer injection. Animals were anesthetized at 5 % isoflurane and maintained under 2 % isoflurane enriched with O2. The dynamic PET scan was started within 5 min after tracer injection with an acquisition time of 90 min. The static scan was performed 60 min after tracer injection with an acquisition time of 30 min. […]
(§6) In order to check for the significant differences, we also checked for the Cohen’s d, a measurement to determine the effect size. It is calculated on the following formula:
(§7) Cohen′sD = Mean1− Mean2 . […]

Data set [2] can be described thus: radiotracer stability in formulation, radio-HPLC. In kind it is physicochemical. Conditions: 10 % EtOH/PBS, 4 h. Here is the method:
Clinical translation requires higher amounts of radioactivity than those manually achievable, which are limited by radiation burden for the radiochemist. Therefore, the synthesis of [^18F]PSMA‐MIC01 was automated on a FlowSafe radiosynthesis module, a continuous‐flow microfluidics platform (see Supporting Information for details). [^18F]PSMA‐MIC01 was produced in an overall RCY of 21 % with an overall production time of 139 min (see Supporting Information for experimental details). The higher RCY can be explained by the use of the microfluidic set up for the [^18F]fluorination towards intermediate [^18F]9. Microfluidic systems have a higher surface‐to‐volume ratio which results in an increased heat transfer capacity compared to in‐batch syntheses.62 This enabled reduction of the effective reaction time of the [^18F]fluorination to 75 s with concomitant reduction of ^18F‐side‐products and increased the intermediary RCY of [^18F]9 to 42 % and overall RCY to 21 %. […] The measured lipophilicity (logD) in n‐octanol/PBS was −3.01±0.22 (see Supporting Information). […]
The stabilities of [18F]PSMA-MIC01 and [18F]PSMA-MIC02 were tested, to ensure the integrity of the tracer in solution. […] After purification and formulation into an injectable solution of 10 % EtOH in PBS, the radiotracer was analysed by HPLC again (B),which was repeated after 2 h (C) and 4 h (D). […]

The test system of data set [3] is LNCaP (PSMA+) xenografts. Put plainly: PET image quantification of organ distribution (SUVmeanBW), LNCaP xenograft mice. In kind it is in vivo, Balb/c nude mice. How it is done:
as §1, §2, §3, §4, §5, §6, §7

Setting [4] is: LNCaP-blocked (PSMA+), 2-PMPA prior to tracer.

The values that follow come from article PMC7496508, “Modular Medical Imaging Agents Based on Azide–Alkyne Huisgen Cycloadditions: Synthesis and Pre‐Clinical Evaluation of ^18F‐Labeled PSMA‐Tracers for Prostate Cancer Imaging” (Chemistry (Weinheim an Der Bergstrasse, Germany), 2020).

Structures are written as SMILES.

On to `O=C(O)CC[C@H](NC(=O)N[C@@H](CCCCNC(=O)c1ccc(-c2cn(CCOCCOCC[18F])nn2)cc1)C(=O)O)C(=O)O` [[^18F]PSMA‐MIC01], for which, in data set [1], the “SUVmeanBW Bladder” value is reported as 3.9 ± 0.4, the “SUVmeanBW Brain” value is given as 0.2 ± 0.1, the “SUVmeanBW Heart” value was 0.7 ± 0.2 and the “SUVmeanBW Kidney” value is given as 5.1 ± 1.9. Further, in data set [1], the “SUVmeanBW Liver” value was found to be 1.5 ± 0.5, the “SUVmeanBW Muscle” value is listed as 0.3 ± 0.1 and the “SUVmeanBW Tumor” value worked out at 0.4 ± 0.2. In addition, the “stability of the radiotracer” value in data set [2] is “No degradation products could be detected”. For the same compound, in data set [3] (LNCaP (PSMA+) xenograft), the “SUVmeanBW Bladder” value is 10.2 ± 6.7, the “SUVmeanBW Brain” value was 0.2 ± 0.1, the “SUVmeanBW Heart” value was 0.4 ± 0.2 and the “SUVmeanBW Kidney” value is 4.4 ± 1.4. In data set [3] (LNCaP (PSMA+) xenograft), the “SUVmeanBW Liver” value turned out to be 0.8 ± 0.2, the “SUVmeanBW Muscle” value is recorded as 0.2 ± 0.1 and the “SUVmeanBW Tumor” value amounted to 0.6 ± 0.4. For the same compound, in data set [3] (setting [4]), the “SUVmeanBW Bladder” value is listed as 20.7 ± 12.4, the “SUVmeanBW Brain” value was found to be 0.1 ± 0.0, the “SUVmeanBW Heart” value worked out at 0.4 ± 0.1 and the “SUVmeanBW Kidney” value turned out to be 2.6 ± 1.7. In data set [3] (setting [4]), the “SUVmeanBW Liver” value is reported as 0.8 ± 0.4, the “SUVmeanBW Muscle” value is 0.2 ± 0.1 and the “SUVmeanBW Tumor” value is on record as 0.3 ± 0.1.
